Measurements from patent US20100311691A1, “COMPOSITIONS OF S-ALKYLISOTHIOURONIUM DERIVATIVES FOR TREATING UPPER RESPIRATORY CONGESTION” (priority 2007, published 2010).

Experiments:
[1] = system: nasal congestion, rhinitis and acute sinusitis; assay: Example 4: case report Patient B (rhinitis and acute sinusitis), nasal drops; type: in vivo
Method: Patient B was admitted with a diagnosis of rhinitis and acute sinusitis. The patient complained of headaches, dizziness, and common cold. […] The radiological examination confirmed acute sinusitis. The patient was treated by puncture of the sinuses with the introduction of antiseptics, Cefazoline 1.0 administered intramuscularly 2 times per day, Loratidin tablets 10 mg and, locally, nasal drops of S-ethylisothiouronium diethylphosphate 2% were used 3-4 times per day. The treatment with S-ethylisothiouronium diethylphosphate led to an amelioration of the clinical symptoms and hyperemia of the nasal mucosa 1-2 days earlier than that obtained by the treatment with Olysin.

[2] = system: upper respiratory tract and oral pharyngeal congestion; assay: Summary comparison of diethylphosphate and bromide in upper respiratory tract and oral pharyngeal congestion; type: in vivo, subjects; conditions: summary statement
[3] = system: nasal congestion, rhino-sinusitis; assay: Example 4: case report Patient A (rhino-sinusitis), nasal drops; type: in vivo; conditions: for repeated administrations needed: nasal drops
Method: Patient A was admitted with a diagnosis of rhino-sinusitis. […] Clinical examination indicated hyperemia of the nasal mucosa, rhinorrhea, nasal obstruction with narrowing of the lower and medium nasal cornets. The patient was treated with, antibacterial medication, and the sinuses were drained by the introduction of antiseptics. In addition, 2-3 nasal drops of S-ethylisothiouronium diethylphosphate 1% were administered. The patient was treated during 3 days. As a result of the treatment with S-ethylisothiouronium diethylphosphate, an amelioration of the clinical symptoms was achieved 1-2 days earlier than that achieved by the treatment with S-ethylisothiouronium bromide (designated Olysin). Also, the repeated administration of S-ethylisothiouronium diethylphosphate was reduced to 2-3 times per day, and not 4-5 times as was necessary when administering Olysin.

[4] = system: nasal congestion; conditions: unpublished studies; cited from earlier work

## S-ethylisothiouronium diethylphosphate
[1]; 2% nasal drops
  adverse effects: No adverse effects
[1]; 2% nasal drops 3-4 times per day, with Cefazoline, Loratidin, antiseptics
  amelioration of clinical symptoms and hyperemia of the nasal mucosa earlier than with Olysin: 1 to 2 days
[2]
  efficiency in alleviating congestion and symptoms, relative to S-ethylisothiouronium bromide: more efficient than S-ethylisothiouronium bromide
  side effects: little or no side effects
[3]; 1% nasal drops
  adverse effects / tachyphylaxis: No adverse effects or tachyphylaxis
[3]; 2-3 nasal drops of 1%, treated during 3 days, with antibacterial medication and sinus drainage
  amelioration of clinical symptoms earlier than with S-ethylisothiouronium bromide (Olysin): 1 to 2 days
[3]
  repeated administrations needed: 2-3 times per day

## Br.CCSC(=N)N [Olysin, S-ethylisothiouronium bromide]
[3]
  repeated administrations needed: 4-5 times per day
[4]
  nasal decongestion: moderate and short-term nasal decongestions
  side effects: harmful side effects
